What follows are compounds tested against T1, GLP-1R (Homo sapiens, UniProt P43220) (assay: GLP-1R activation cAMP assay (Assay 1 or Assay 2)). Conditions: cAMP increase in CHO cells stably expressing GLP-1R; compounds run on one of the two cAMP assays.
T1 construct: host or cells: CHO cells
Type: cell-based
How it was run: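 CHO cells stably expressing human GLP-1R were incubated 1 h in HBSS/20 mM HEPES/0.1% BSA, then exposed to 10-point agonist dilutions for 30 min at 37 °C. cAMP increase was measured with an HTRF Gs dynamic kit; EC50 from sigmoidal fit of response versus log concentration.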

T1 sequence (P43220 24-463): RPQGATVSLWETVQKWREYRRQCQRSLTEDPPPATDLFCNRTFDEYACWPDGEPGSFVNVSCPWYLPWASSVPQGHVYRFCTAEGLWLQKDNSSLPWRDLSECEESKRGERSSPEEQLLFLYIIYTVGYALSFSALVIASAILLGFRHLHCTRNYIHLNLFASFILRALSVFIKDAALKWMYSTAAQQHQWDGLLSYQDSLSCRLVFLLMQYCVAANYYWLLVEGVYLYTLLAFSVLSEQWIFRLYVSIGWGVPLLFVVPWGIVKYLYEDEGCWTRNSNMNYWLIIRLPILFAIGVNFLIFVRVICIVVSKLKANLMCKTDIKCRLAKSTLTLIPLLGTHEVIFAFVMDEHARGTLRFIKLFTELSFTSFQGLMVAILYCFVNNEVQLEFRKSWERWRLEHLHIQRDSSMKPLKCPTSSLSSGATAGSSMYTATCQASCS

| SMILES | EC50 [pM] |
| --- | --- |
| O=C(O)c1ccc2nc(Cc3c(F)cc(-c4cccc(OCc5ncc(C(F)(F)F)s5)n4)c(F)c3F)n(C[C@@H]3CCO3)c2c1 [Example 448, (S)-1-(oxetan-2-ylmethyl)-2-(2,3,6-trifluoro-4-(6-((5-(trifluoromethyl)thiazol-2-yl)methoxy)pyridin-2-yl)benzyl)-1H-benzo[d]imidazole-6-carboxylic acid] | 118 |
| CC1(C)COCC1n1c(Cc2cc(F)c(-c3cccc(OCc4ncc(C(F)F)s4)n3)cc2F)nc2c(F)cc(C(=O)O)cc21 (stereo not shown) [Example 341, 2-(4-(6-((5-(difluoromethyl)thiazol-2-yl)methoxy)pyridin-2-yl)-2,5-difluorobenzyl)-1-(4,4-dimethyltetrahydrofuran-3-yl)-4-fluoro-1H-benzo[d]imidazole-6-carboxylic acid] | 772 |
| CC1(C#Cc2cnc(COc3cccc(-c4cc(F)c(Cc5nc6ccc(C(=O)O)cc6n5C[C@@H]5CCO5)cc4F)n3)s2)CC1 [Example 329, (S)-2-(2,5-difluoro-4-(6-((5-((1-methylcyclopropyl)ethynyl)thiazol-2-yl)methoxy)pyridin-2-yl)benzyl)-1-(oxetan-2-ylmethyl)-1H-benzo[d]imidazole-6-carboxylic acid] | 226 |
| NC(=O)c1cnc(COc2cccc(-c3cc(F)c(Cc4nc5ccc(C(=O)O)cc5n4C[C@@H]4CCO4)cc3F)n2)s1 [Example 3, (S)-2-(4-(6-((5-carbamoylthiazol-2-yl)methoxy)pyridin-2-yl)-2,5-difluorobenzyl)-1-(oxetan-2-ylmethyl)-1H-benzo[d]imidazole-6-carboxylic acid] | 3150 |
| O=C(O)c1ccc2nc(Cc3cc(F)c(-c4cccc(OCc5nnc(OC6CCC6)s5)n4)cc3F)n(C[C@@H]3CCO3)c2c1 [Example 344, (S)-2-(4-(6-((5-cyclobutoxy-1,3,4-thiadiazol-2-yl)methoxy)pyridin-2-yl)-2,5-difluorobenzyl)-1-(oxetan-2-ylmethyl)-1H-benzo[d]imidazole-6-carboxylic acid] | 55 |
| N#CCn1nccc1COc1cccc(-c2cc(F)c(Cc3nc4ccc(C(=O)O)cc4n3C[C@@H]3CCO3)cc2F)n1 [Example 239, (S)-2-(4-(6-((1-(cyanomethyl)-1H-pyrazol-5-yl)methoxy)pyridin-2-yl)-2,5-difluorobenzyl)-1-(oxetan-2-ylmethyl)-1H-benzo[d]imidazole-6-carboxylic acid] | 447000 |
| NC(=O)CNC(=O)c1ccc(COc2cccc(-c3cc(F)c(Cc4nc5ccc(C(=O)O)cc5n4C[C@@H]4CCO4)cc3F)n2)cn1 [Example 176, (S)-2-(4-(6-((6-((2-amino-2-oxoethyl)carbamoyl)pyridin-3-yl)methoxy)pyridin-2-yl)-2,5-difluorobenzyl)-1-(oxetan-2-ylmethyl)-1H-benzo[d]imidazole-6-carboxylic acid] | 2190 |
| CC1(C)COC[C@H]1n1c(Cc2cc(F)c(-c3ccc(F)c(OCc4ncc(C(F)(F)F)s4)n3)cc2F)nc2ccc(C(=O)O)cc21 [Example 415, (S)-2-(2,5-difluoro-4-(5-fluoro-6-((5-(trifluoromethyl)thiazol-2-yl)methoxy)pyridin-2-yl)benzyl)-1-(4,4-dimethyltetrahydrofuran-3-yl)-1H-benzo[d]imidazole-6-carboxylic acid] | 189 |
| CC1(C#Cc2cnc(COc3cccc(-c4cc(F)c(Cc5nc6ccc(C(=O)O)cc6n5C[C@@H]5CCO5)cc4F)n3)s2)COC1 [Example 115, (S)-2-(2,5-difluoro-4-(6-((5-((3-methyloxetan-3-yl)ethynyl)thiazol-2-yl)methoxy)pyridin-2-yl)benzyl)-1-(oxetan-2-ylmethyl)-1H-benzo[d]imidazole-6-carboxylic acid] | 70 |
| Cc1nnc(COc2cccc(-c3cc(F)c(Cc4nc5c(F)cc(C(=O)O)cc5n4[C@@H]4COCC4(C)C)cc3F)n2)s1 [Example 283, (S)-2-(2,5-difluoro-4-(6-((5-methyl-1,3,4-thiadiazol-2-yl)methoxy)pyridin-2-yl)benzyl)-1-(4,4-dimethyltetrahydrofuran-3-yl)-4-fluoro-1H-benzo[d]imidazole-6-carboxylic acid] | 109 |
| N#Cc1ccc(C#Cc2cnc(COc3cccc(-c4cc(F)c(Cc5nc6ccc(C(=O)O)cc6n5C[C@@H]5CCO5)cc4F)n3)nc2)cc1 [Example 404, (S)-2-(4-(6-((5-((4-cyanophenyl)ethynyl)pyrimidin-2-yl)methoxy)pyridin-2-yl)-2,5-difluorobenzyl)-1-(oxetan-2-ylmethyl)-1H-benzo[d]imidazole-6-carboxylic acid] | 689 |
| COCCn1c(Cc2cc(F)c(-c3cccc(OCc4ccc(-c5ccc(N6CCCC6)nc5)cc4F)n3)cc2F)nc2ccc(C(=O)O)cc21 [Example 228, 2-(2,5-difluoro-4-(6-((2-fluoro-4-(6-(pyrrolidin-1-yl)pyridin-3-yl)benzyl)oxy)pyridin-2-yl)benzyl)-1-(2-methoxyethyl)-1H-benzo[d]imidazole-6-carboxylic acid] | 26000 |
| O=C(O)c1ccc2nc(Cc3cc(F)c(-c4cccc(OCc5ncc(-c6ccns6)s5)n4)cc3F)n(C[C@@H]3CCO3)c2c1 [Example 100, (S)-2-(2,5-difluoro-4-(6-((5-(isothiazol-5-yl)thiazol-2-yl)methoxy)pyridin-2-yl)benzyl)-1-(oxetan-2-ylmethyl)-1H-benzo[d]imidazole-6-carboxylic acid] | 90 |

Now from value to compound:

| EC50 [pM] | SMILES |
| --- | --- |
| 2380 | O=C(O)c1ccc2nc(Cc3cc(F)c(-c4cccc(OCc5nncs5)n4)cc3F)n(C[C@@H]3CCO3)c2c1 [Example 59, (S)-2-(4-(6-((1,3,4-thiadiazol-2-yl)methoxy)pyridin-2-yl)-2,5-difluorobenzyl)-1-(oxetan-2-ylmethyl)-1H-benzo[d]imidazole-6-carboxylic acid] |
| 3640 | O=C(O)c1ccc2nc(Cc3cc(F)c(-c4cccc(OCc5ccn(-c6ccncc6)n5)n4)cc3F)n(C[C@@H]3CCO3)c2c1 [Example 125, (S)-2-(2,5-difluoro-4-(6-((1-(pyridin-4-yl)-1H-pyrazol-3-yl)methoxy)pyridin-2-yl)benzyl)-1-(oxetan-2-ylmethyl)-1H-benzo[d]imidazole-6-carboxylic acid] |
| 5280 | Cn1nccc1COc1cccc(-c2cc(F)c(Cc3nc4ccc(C(=O)O)cc4n3C[C@@H]3CCO3)cc2F)n1 [Example 36, (S)-2-(2,5-difluoro-4-(6-((1-methyl-1H-pyrazol-5-yl)methoxy)pyridin-2-yl)benzyl)-1-(oxetan-2-ylmethyl)-1H-benzo[d]imidazole-6-carboxylic acid] |
| 720 | O=C(O)c1ccc2nc(Cc3cc(F)c(-c4cccc(OCc5ccc(-c6cn(C78CC(C7)C8)nn6)cc5F)n4)cc3F)n(C[C@@H]3CCO3)c2c1 [Example 216, (S)-2-(4-(6-((4-(1-(bicyclo[1.1.1]pentan-1-yl)-1H-1,2,3-triazol-4-yl)-2-fluorobenzyl)oxy)pyridin-2-yl)-2,5-difluorobenzyl)-1-(oxetan-2-ylmethyl)-1H-benzo[d]imidazole-6-carboxylic acid] |
| 478 | NC(=O)c1cccc(COc2cccc(-c3cc(F)c(Cc4nc5ccc(C(=O)O)cc5n4C[C@@H]4CCO4)cc3F)n2)n1 [Example 374, (S)-2-(4-(6-((6-carbamoylpyridin-2-yl)methoxy)pyridin-2-yl)-2,5-difluorobenzyl)-1-(oxetan-2-ylmethyl)-1H-benzo[d]imidazole-6-carboxylic acid] |
| 110 | O=C(O)c1ccc2nc(Cc3cc(F)c(-c4cccc(OCc5nnc(C6CC(F)(F)C6)s5)n4)cc3F)n(C[C@@H]3CCO3)c2c1 [Example 385, (S)-2-(4-(6-((5-(3,3-difluorocyclobutyl)-1,3,4-thiadiazol-2-yl)methoxy)pyridin-2-yl)-2,5-difluorobenzyl)-1-(oxetan-2-ylmethyl)-1H-benzo[d]imidazole-6-carboxylic acid] |
| 170 | O=C(O)c1ccc2nc(Cc3cc(F)c(-c4cccc(OCc5ncc(Br)s5)n4)cc3F)n(C[C@@H]3CCO3)c2c1 [Example 22, (S)-2-(4-(6-((5-bromothiazol-2-yl)methoxy)pyridin-2-yl)-2,5-difluorobenzyl)-1-(oxetan-2-ylmethyl)-1H-benzo[d]imidazole-6-carboxylic acid] |
| 570 | O=C(O)c1ccc2nc(Cc3cc(F)c(-c4cccc(OCc5cnc(C(=O)NC6CCC6)cc5F)n4)cc3F)n(C[C@@H]3CCO3)c2c1 [Example 246, (S)-2-(4-(6-((6-(cyclobutylcarbamoyl)-4-fluoropyridin-3-yl)methoxy)pyridin-2-yl)-2,5-difluorobenzyl)-1-(oxetan-2-ylmethyl)-1H-benzo[d]imidazole-6-carboxylic acid] |
| 330 | Cn1cc(C#Cc2ccc(COc3cccc(-c4cc(F)c(Cc5nc6ccc(C(=O)O)cc6n5C[C@@H]5CCO5)cc4F)n3)c(F)n2)cn1 [Example 362, (S)-2-(2,5-difluoro-4-(6-((2-fluoro-6-((1-methyl-1H-pyrazol-4-yl)ethynyl)pyridin-3-yl)methoxy)pyridin-2-yl)benzyl)-1-(oxetan-2-ylmethyl)-1H-benzo[d]imidazole-6-carboxylic acid] |
| 3720 | NC(=O)c1ccc(COc2cccc(-c3cc(F)c(Cc4nc5ccc(C(=O)O)cc5n4C[C@@H]4CCO4)cc3F)n2)s1 [Example 127, (S)-2-(4-(6-((5-carbamoylthiophen-2-yl)methoxy)pyridin-2-yl)-2,5-difluorobenzyl)-1-(oxetan-2-ylmethyl)-1H-benzo[d]imidazole-6-carboxylic acid] |
| 410 | O=C(O)c1ccc2nc(Cc3cc(F)c(-c4cccc(OCc5cnc(Br)s5)n4)cc3F)n(C[C@@H]3CCO3)c2c1 [Example 21, (S)-2-(4-(6-((2-bromothiazol-5-yl)methoxy)pyridin-2-yl)-2,5-difluorobenzyl)-1-(oxetan-2-ylmethyl)-1H-benzo[d]imidazole-6-carboxylic acid] |
| 1320 | N#Cc1ccc2nc(COc3cccc(-c4cc(F)c(Cc5nc6ccc(C(=O)O)cc6n5C[C@@H]5CCO5)cc4F)n3)cn2c1 [Example 31, (S)-2-(4-(6-((6-cyanoimidazo[1,2-a]pyridin-2-yl)methoxy)pyridin-2-yl)-2,5-difluorobenzyl)-1-(oxetan-2-ylmethyl)-1H-benzo[d]imidazole-6-carboxylic acid] |

Reference: patent publication US20250312352A1, “GLP-1R MODULATING COMPOUNDS” (Gilead Sciences, Inc., priority 2021, published 2025)
